# From ChEMBL document CHEMBL3217672, “Optimization of a series of dipeptides with a P3 -neopentyl asparagine residue as non-covalent inhibitors of the chymotrypsin-like activity of human 20S proteasome” (Medchemcomm, 2012)
# Activity calls are given as the source filed them. The calls are words filed in the database; no cut-off is given here.
# Experiments:
# [1] = Cytotoxicity against human Calu6 cells after 72 hrs by luminescence assay; type: functional; conditions: Calu-6, 72 h, read-out: LC50 (the source's name)
# [2] = target: T1, Proteasome Macropain subunit MB1 (Homo sapiens, UniProt P28074); assay: Inhibition of 20S proteasome beta5 subunit in human erythrocytes using Ac-WLA-AMC as substrate by fluorescence assay; type: cell-based
# T1 sequence (P28074 whole entry): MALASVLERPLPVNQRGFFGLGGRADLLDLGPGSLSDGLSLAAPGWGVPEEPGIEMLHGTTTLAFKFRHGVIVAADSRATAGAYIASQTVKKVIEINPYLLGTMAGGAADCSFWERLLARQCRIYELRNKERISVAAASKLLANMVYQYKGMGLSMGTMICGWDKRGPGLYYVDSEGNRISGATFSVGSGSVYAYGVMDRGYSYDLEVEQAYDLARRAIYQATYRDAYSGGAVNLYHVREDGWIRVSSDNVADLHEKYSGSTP
# [3] = target: Cathepsin B (Homo sapiens) (UniProt P07858); assay: Inhibition of human purified cathepsin B at 100 uM
# [4] = target: Procathepsin L (Homo sapiens) (UniProt P07711); assay: Inhibition of human purified cathepsin L at 100 uM
# [5] = target: T2, Coagulation factor XII (Homo sapiens) (UniProt P00748); assay: Inhibition of human purified coagulation factor 12a at 100 uM
# T2 sequence (whole entry): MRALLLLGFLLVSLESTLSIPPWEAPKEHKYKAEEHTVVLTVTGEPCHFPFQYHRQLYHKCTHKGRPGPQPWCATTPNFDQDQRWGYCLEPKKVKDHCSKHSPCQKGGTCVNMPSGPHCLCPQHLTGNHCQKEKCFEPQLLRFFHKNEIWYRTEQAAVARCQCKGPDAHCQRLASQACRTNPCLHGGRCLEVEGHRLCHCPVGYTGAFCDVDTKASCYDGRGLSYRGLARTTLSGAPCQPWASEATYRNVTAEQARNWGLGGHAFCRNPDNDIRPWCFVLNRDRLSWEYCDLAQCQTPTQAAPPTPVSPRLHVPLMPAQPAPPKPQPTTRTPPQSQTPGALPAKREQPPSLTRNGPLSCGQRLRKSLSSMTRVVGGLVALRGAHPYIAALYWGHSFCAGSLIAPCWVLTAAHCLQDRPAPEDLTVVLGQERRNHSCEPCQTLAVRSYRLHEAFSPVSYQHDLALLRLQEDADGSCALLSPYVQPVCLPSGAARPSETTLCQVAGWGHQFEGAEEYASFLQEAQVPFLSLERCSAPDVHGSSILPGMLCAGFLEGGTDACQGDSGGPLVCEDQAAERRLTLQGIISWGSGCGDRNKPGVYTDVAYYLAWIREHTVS
# Homo sapiens [6] = organism: Homo sapiens; assay: Inhibition of human purified chymotrypsin at 100 uM
# Homo sapiens [7] = organism: Homo sapiens; assay: Inhibition of human purified elastase at 100 uM
# [8] = target: Plasminogen (Homo sapiens) (UniProt P00747); assay: Inhibition of human purified plasmin at 100 uM
# [9] = target: Prothrombin (Homo sapiens) (UniProt P00734); assay: Inhibition of human purified thrombin at 100 uM
# [10] = target: Tissue-type plasminogen activator (Homo sapiens) (UniProt P00750); assay: Inhibition of human purified tissue-type plasminogen activator at 100 uM
# Trypsin (Homo sapiens) = Trypsin (Homo sapiens) (UniProt P07477+P07478+P35030); assay: Inhibition of human purified trypsin at 100 uM; type: protein assay
# [11] = target: T3, Calpain-1 catalytic subunit (Homo sapiens) (UniProt P07384); assay: Inhibition of human purified calpain 1 at 100 uM
# T3 sequence (whole entry): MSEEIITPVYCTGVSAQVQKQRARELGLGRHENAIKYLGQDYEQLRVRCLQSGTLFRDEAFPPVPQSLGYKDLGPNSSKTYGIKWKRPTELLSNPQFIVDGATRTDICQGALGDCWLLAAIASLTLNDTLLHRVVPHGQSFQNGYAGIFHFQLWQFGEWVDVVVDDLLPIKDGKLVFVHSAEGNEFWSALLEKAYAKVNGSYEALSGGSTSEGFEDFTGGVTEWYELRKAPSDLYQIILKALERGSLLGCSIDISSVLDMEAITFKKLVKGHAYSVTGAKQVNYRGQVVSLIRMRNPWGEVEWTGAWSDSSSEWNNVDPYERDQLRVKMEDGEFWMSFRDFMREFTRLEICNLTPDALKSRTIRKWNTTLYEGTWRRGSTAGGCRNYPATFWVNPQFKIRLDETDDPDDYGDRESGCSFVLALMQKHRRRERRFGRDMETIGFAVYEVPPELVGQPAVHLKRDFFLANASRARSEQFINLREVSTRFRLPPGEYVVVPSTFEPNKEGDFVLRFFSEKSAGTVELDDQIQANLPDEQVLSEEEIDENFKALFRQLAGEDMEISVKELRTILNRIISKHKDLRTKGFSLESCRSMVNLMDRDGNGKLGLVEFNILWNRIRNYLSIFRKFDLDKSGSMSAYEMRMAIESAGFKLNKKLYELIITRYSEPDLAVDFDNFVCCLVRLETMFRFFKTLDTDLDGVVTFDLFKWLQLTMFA
# [12] = target: T1, Proteasome Macropain subunit MB1; assay: Inhibition of 26S proteasome beta5 subunit in human Calu6 cells using Suc-LLVY-aminoluciferin as substrate after 1hr by luminescence assay; type: cell-based, Calu-6
# Tissue-type plasminogen activator (Homo sapiens), sequence (P00750 36-562 limits assumed): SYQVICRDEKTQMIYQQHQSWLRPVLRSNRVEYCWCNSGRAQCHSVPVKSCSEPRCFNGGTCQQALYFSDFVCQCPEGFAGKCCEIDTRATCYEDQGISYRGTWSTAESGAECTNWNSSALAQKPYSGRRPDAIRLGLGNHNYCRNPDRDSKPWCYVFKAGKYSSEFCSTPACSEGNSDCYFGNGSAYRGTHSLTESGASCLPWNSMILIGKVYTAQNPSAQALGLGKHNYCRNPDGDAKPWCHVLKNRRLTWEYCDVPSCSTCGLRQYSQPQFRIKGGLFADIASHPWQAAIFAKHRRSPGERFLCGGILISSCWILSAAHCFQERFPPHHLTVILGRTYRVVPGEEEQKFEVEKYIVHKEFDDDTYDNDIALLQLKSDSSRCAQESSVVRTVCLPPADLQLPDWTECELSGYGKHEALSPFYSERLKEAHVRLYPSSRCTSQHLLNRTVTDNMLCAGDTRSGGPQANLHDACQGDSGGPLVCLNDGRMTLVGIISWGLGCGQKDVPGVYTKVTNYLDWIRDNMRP
# Plasminogen (Homo sapiens), sequence (P00747 97-580 limits assumed): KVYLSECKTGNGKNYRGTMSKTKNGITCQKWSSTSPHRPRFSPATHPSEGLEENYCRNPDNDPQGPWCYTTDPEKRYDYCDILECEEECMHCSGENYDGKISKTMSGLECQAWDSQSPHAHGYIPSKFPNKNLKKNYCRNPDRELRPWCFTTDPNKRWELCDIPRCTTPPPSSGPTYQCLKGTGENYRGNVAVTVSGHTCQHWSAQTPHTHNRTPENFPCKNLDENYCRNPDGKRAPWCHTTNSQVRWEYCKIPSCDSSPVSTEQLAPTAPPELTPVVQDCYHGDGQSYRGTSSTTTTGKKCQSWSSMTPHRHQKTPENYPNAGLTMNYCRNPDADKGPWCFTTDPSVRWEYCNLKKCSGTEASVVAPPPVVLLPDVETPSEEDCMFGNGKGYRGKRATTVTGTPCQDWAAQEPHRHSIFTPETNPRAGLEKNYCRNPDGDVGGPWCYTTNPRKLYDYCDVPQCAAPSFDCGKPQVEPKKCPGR
# Plasminogen (Homo sapiens), sequence (P00747 581-810 limits assumed): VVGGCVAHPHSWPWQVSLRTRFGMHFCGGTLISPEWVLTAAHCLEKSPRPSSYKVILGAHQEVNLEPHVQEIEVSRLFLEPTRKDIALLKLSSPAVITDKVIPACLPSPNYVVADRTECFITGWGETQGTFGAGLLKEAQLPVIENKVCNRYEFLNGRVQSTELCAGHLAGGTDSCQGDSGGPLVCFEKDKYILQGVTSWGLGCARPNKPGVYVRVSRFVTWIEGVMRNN
# Procathepsin L (Homo sapiens), sequence (P07711 114-333 limits assumed): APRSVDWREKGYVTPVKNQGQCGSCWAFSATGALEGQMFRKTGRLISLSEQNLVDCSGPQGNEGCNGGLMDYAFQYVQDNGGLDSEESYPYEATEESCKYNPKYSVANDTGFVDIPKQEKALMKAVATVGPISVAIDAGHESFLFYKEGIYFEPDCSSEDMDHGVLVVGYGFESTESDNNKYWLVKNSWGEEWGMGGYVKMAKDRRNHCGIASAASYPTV
SMILES,CC50 [1] [nM],IC50 [2] [nM],further results
CC(C)(C)CNC(=O)C[C@H](NC(=O)Cc1ccc(F)cc1)C(=O)N[C@@H](CCc1ccccc1)C(=O)NCc1ccccc1,120,–,–
Cc1ccc(CNC(=O)[C@H](CCc2ccccc2)NC(=O)[C@H](CNC(=O)CC(C)(C)C)NC(=O)c2cc(C)on2)cc1,–,> 1000,–
CCCNC(=O)C[C@H](NC(=O)c1cc(C)on1)C(=O)N[C@@H](CCc1ccccc1)C(=O)NCc1ccc(C)cc1,–,160,–
CC(C)(C)CNC(=O)C[C@H](NC(=O)CCc1ccccc1)C(=O)N[C@@H](CCc1ccccc1)C(=O)NCc1ccccc1Cl,20,–,–
CC(C)C[C@H](NC(=O)[C@H](Cc1ccccc1)NC(=O)c1cnccn1)B(O)O [BORTEZOMIB],5.2,–,–
Cc1cc(C(=O)N[C@@H](CC(=O)NCC(C)(C)C)C(=O)N[C@@H](C)C(=O)NCc2ccccc2Cl)no1,200,–,–
C[C@H](NC(=O)[C@H](CC(=O)NCC(C)(C)C)NC(=O)CCc1ccccc1)C(=O)NCc1ccccc1Cl,39,–,–
CC(C)(C)CNC(=O)C[C@H](NC(=O)C(=O)c1c[nH]c2ccccc12)C(=O)N[C@@H](CCc1ccccc1)C(=O)NCc1ccccc1Cl,2.4,–,inhibition [3]: inactive; inhibition [4]: inactive; inhibition [5]: inactive; inhibition (Homo sapiens [6]): inactive; inhibition (Homo sapiens [7]): inactive; inhibition [8]: inactive; inhibition [9]: inactive; inhibition [10]: inactive; inhibition (Trypsin (Homo sapiens)): inactive; inhibition [11]: inactive
Cc1ccc(CNC(=O)[C@H](CCc2ccccc2)NC(=O)[C@H](CCc2ccccc2)NC(=O)[C@H](CCc2ccccc2)NC(=O)c2cnc(C)cn2)cc1,130,16,IC50 [12]: 53 nM
Cc1ccc(CNC(=O)[C@H](CCc2ccccc2)NC(=O)[C@H](CC(=O)NCC(C)C)NC(=O)c2cc(C)on2)cc1,250,7.3,–
CC(C)(C)CNC(=O)C[C@H](NC(=O)CN1CCCCC1)C(=O)N[C@@H](CCc1ccccc1)C(=O)NCc1ccccc1,180,–,–
CC(C)(C)CNC(=O)C[C@H](NC(=O)C(=O)c1c[nH]c2ccccc12)C(=O)N[C@@H](Cc1ccncc1)C(=O)NCc1ccccc1Cl,6,–,–
Cc1cc(C(=O)N[C@@H](CC(=O)NCC(C)(C)C)C(=O)N[C@@H](CCc2ccccc2)C(=O)NCc2ccccc2Cl)no1,41,–,inhibition [3]: inactive; inhibition [4]: inactive; inhibition [5]: inactive; inhibition (Homo sapiens [6]): inactive; inhibition (Homo sapiens [7]): inactive; inhibition [8]: inactive; inhibition [9]: inactive; inhibition [10]: inactive; inhibition (Trypsin (Homo sapiens)): inactive; inhibition [11]: inactive
Cc1cc(C(=O)N[C@@H](CC(=O)NCC(C)(C)C)C(=O)N[C@@H](Cc2ccncc2)C(=O)NCc2ccccc2Cl)no1,210,–,–
Cc1ccc(CNC(=O)[C@H](CCc2ccccc2)NC(=O)[C@H](CNC(=O)CC(C)(C)C)NC(=O)CCc2ccccc2)cc1,–,> 1000,–
CC(C)(C)CNC(=O)C[C@H](NC(=O)c1ccc(OCc2ccccc2)cc1)C(=O)N[C@@H](CCc1ccccc1)C(=O)NCc1ccccc1,10,–,–

SMILES,CC50 [1] [nM],IC50 [2] [nM],further results
Cc1cc(C(=O)N[C@@H](CC(=O)NCC(C)(C)C)C(=O)N[C@@H](CCc2ccccc2)C(=O)NCc2ccccc2)no1,27,–,–
Cc1ccc(CNC(=O)[C@H](CCc2ccccc2)NC(=O)[C@H](CNC(=O)CC(C)(C)C)NC(=O)C(=O)c2c[nH]c3ccccc23)cc1,–,910,–
CC(C)(C)CNC(=O)C[C@H](NC(=O)C(=O)c1c[nH]c2ccccc12)C(=O)N[C@@H](CCc1ccccc1)C(=O)NCc1ccccc1,2.6,–,–
Cc1ccc(CNC(=O)[C@H](CCc2ccccc2)NC(=O)[C@H](Cc2nc(C(C)(C)C)no2)NC(=O)C(=O)c2c[nH]c3ccccc23)cc1,36,11.6,IC50 [12]: 30 nM
CC(C)(C)CNC(=O)C[C@H](NC(=O)C(C)(C)C)C(=O)N[C@@H](CCc1ccccc1)C(=O)NCc1ccccc1,210,–,–
CC(C)(C)CNC(=O)C[C@H](NC(=O)c1ccc(OCc2ccccc2)cc1)C(=O)N[C@@H](CCc1ccccc1)C(=O)NCc1ccccc1Cl,4.7,–,–
CC(C)C[C@H](NC(=O)CNC(=O)c1cc(Cl)ccc1Cl)B(O)O [IXAZOMIB],14,–,–
CC(=O)N[C@@H](CC(=O)NCC(C)(C)C)C(=O)N[C@@H](CCc1ccccc1)C(=O)NCc1ccccc1,890,–,–
CC(C)(C)CNC(=O)C[C@H](NC(=O)CCc1ccccc1)C(=O)N[C@@H](Cc1cccnc1)C(=O)NCc1ccccc1Cl,61,–,–
CC(C)(C)CNC(=O)C[C@H](NC(=O)CCc1ccccc1)C(=O)N[C@@H](CCc1ccccc1)C(=O)NCc1ccccc1,89,–,–
Cc1cc(C(=O)N[C@@H](CC(=O)NCC(C)(C)C)C(=O)N[C@@H](Cc2cccnc2)C(=O)NCc2ccccc2Cl)no1,170,–,–
Cc1ccc(CNC(=O)[C@H](CCc2ccccc2)NC(=O)[C@H](Cc2nc(C(C)(C)C)no2)NC(=O)c2cc(C)on2)cc1,1500,93,IC50 [12]: 1700 nM
CC(C)(C)CNC(=O)C[C@H](NC(=O)c1ccc(C(C)(C)C)cc1)C(=O)N[C@@H](CCc1ccccc1)C(=O)NCc1ccccc1,31,–,–
CC(C)(C)CNC(=O)C[C@H](NC(=O)Cc1ccc(F)cc1)C(=O)N[C@@H](CCc1ccccc1)C(=O)NCc1ccccc1Cl,94,–,–
CC(C)(C)CNC(=O)C[C@H](NC(=O)CCc1ccccc1)C(=O)N[C@@H](CCc1ccccc1)C(=O)NCC1CC1,150,12,IC50 [12]: 360 nM
Cc1cc(C(=O)N[C@@H](CC(=O)NCC(C)(C)C)C(=O)N[C@@H](Cc2ccc(Cl)cc2)C(=O)NCc2ccccc2Cl)no1,1100,16,–
